Here are results for 1 molecule from patent US10335382B2, “Use of hydrogen sulfide synthesis inhibitors for cancer therapy” (THE BOARD OF REGENTS OF THE UNIVERSITY OF TEXAS SYSTEM, priority 2013, dated 2019).

One test has as its system NCM356 cells. Description: NCM356 non-malignant colonic epithelial cell proliferation (xCELLigence). The test is classed as cell-based, human. The following applies: AOAA 1 mM. As to the method: Cellular proliferation assays are conducted in HCT116 CRC cells in vitro, using the Roche XCelligence method. Concentration-response curves with the various AOAA analogs are prepared (concentration range: 1, 3, 10, 100, 300 and 600 μM). AOAA is used as the reference control, which, according to preliminary data, has an IC50 of approximately 300 μM. Control proliferation studies in the non-carcinogenic colonic epithelial cell line NCM356 are used to confirm cancer-cell selectivity. Since the NCM356 cells contain low levels of CBS, based on previous studies it is expect that AOAA (and its prodrugs) will only exert modest antiproliferative effects in these cells. Proliferation-inhibitory effects of the AOAA prodrugs in NCM356 cells indicate CBS-independent pharmacological actions. […]
Cellular migration and invasion assays were performed as described (Chao et al. (1996) Cancer Res. 56:4811-19). […] Migrated and invaded cells were then fixed in Carson's fixative, stained in 0.33% toluidine blue and quantified by visual counting. For the HCT116-EAhy926 co-culture experiment, the cancer cell line was grown to confluence in the bottom wells of the transwell chambers and then endothelial cell migration was assessed (Coletta et al. (2012) Proc Natl Acad Sci USA. 109:9161-66). […]

Test [1] concerns HCT116 cells. Description: HCT116 cell migration and invasion (Transwell). It is filed as cell-based, human. The following applies: AOAA 1 mM, fibroblast-conditioned media. The method, then: FIG. 3. […] (A, B) The lentiviral shRNA vectors targeting CBS (shCBS) and CSE (shCSE) were transfected into HCT116 cells. A non-targeting sequence was used as control (shNT). […] Following CBS and CSE silencing, cells were seeded at the density of 3000 cells/well in xCELLigence plates and proliferation was monitored for 36 hours. […] The NCM356 cells were infected overnight with a CBS expressing adenovirus (Ad-CBS, 10 multiplicity of infection (MOI)) or its control, a green fluorescent protein (Ad-GFP). The culture media was then replaced and cells were seeded in XCelligence plates at 3000 cells/well. Cell proliferation was then measured real-time over 36 hours. […] (H, I) The effect of AOAA and NaHS was also tested on HCT116 cell migration (H) and invasion (I). Cells were pretreated either with vehicle or AOAA (1 mM) and seeded in serum-free DMEM (0.1% albumin) in the upper chamber of a trans-well insert uncoated (migration assay) or coated with growth factor reduced matrigel (invasion assay). Migration and invasion were stimulated by fibroblast-conditioned media in the lower chamber for 6 and 24 hours, respectively. […] (J) In a co-culture of human endothelial cells (EAhy926) and colon cancer cells (HCT116), HCT 116 cells were seeded in the lower chamber of a trans-well insert and cultured to confluence. Endothelial cells were then seeded into the upper chamber in serum-free DMEM and allowed to migrate for 4 hours at 37° C. […] Western blots are representative of at least three independent experiments; proliferation/migration/invasion assays and H2S measurements represent mean±SEM of n=3 determinations.
Cellular migration and invasion assays were performed as described (Chao et al. (1996) Cancer Res. 56:4811-19). Briefly, 10^5 cells were suspended in serum-free media containing 0.1% BSA and then added to 6.5 mm Transwell chambers ([…]) uncoated (migration assay) or coated with a thin layer (45 μl) of growth factor reduced matrigel (cell invasion assay). Cells were allowed to migrate toward the bottom chamber containing fibroblast (NIH-3T3 cells) conditioned media at 37° C. for 6 or 24 h for cell migration and invasion, respectively. Migrated and invaded cells were then fixed in Carson's fixative, stained in 0.33% toluidine blue and quantified by visual counting. For the HCT116-EAhy926 co-culture experiment, the cancer cell line was grown to confluence in the bottom wells of the transwell chambers and then endothelial cell migration was assessed (Coletta et al. (2012) Proc Natl Acad Sci USA. 109:9161-66).

Test [2] relates to human endothelial cells (EAhy926). Description: Endothelial cell migration in co-culture with HCT116. The note with it: 4 hours at 37° C. The test is classed as cell-based. The method, then:
FIG. 3. […] (A, B) The lentiviral shRNA vectors targeting CBS (shCBS) and CSE (shCSE) were transfected into HCT116 cells. A non-targeting sequence was used as control (shNT). […] Following CBS and CSE silencing, cells were seeded at the density of 3000 cells/well in xCELLigence plates and proliferation was monitored for 36 hours. […] The NCM356 cells were infected overnight with a CBS expressing adenovirus (Ad-CBS, 10 multiplicity of infection (MOI)) or its control, a green fluorescent protein (Ad-GFP). The culture media was then replaced and cells were seeded in XCelligence plates at 3000 cells/well. Cell proliferation was then measured real-time over 36 hours. […] (H, I) The effect of AOAA and NaHS was also tested on HCT116 cell migration (H) and invasion (I). […]
Cellular migration and invasion assays were performed as described (Chao et al. (1996) Cancer Res. 56:4811-19). […] Migrated and invaded cells were then fixed in Carson's fixative, stained in 0.33% toluidine blue and quantified by visual counting. For the HCT116-EAhy926 co-culture experiment, the cancer cell line was grown to confluence in the bottom wells of the transwell chambers and then endothelial cell migration was assessed (Coletta et al. (2012) Proc Natl Acad Sci USA. 109:9161-66).

Test [3] relates to HCT116 cells. Description: Bioenergetic analysis in intact cells (XF24 Extracellular Flux Analyzer). The test is classed as cell-based, human. The note with it: AOAA 1 mM. The method, then: The XF24 Extracellular Flux Analyzer (Seahorse Bioscience, Billerica, Mass.) was used to measure bioenergetic function as described in Módis et al. ((2013) FASEB J 27:601-11) and Wu et al. ((2007) Am J Physiol Cell Physiol. 292:C125-36). Oxygen consumption rate (OCR) after oligomycin (1.5 μg/ml) was used to assess ATP production rate and OCR after FCCP (0.5 μM) to assess maximal mitochondrial respiratory capacity. 2-deoxyglucose (100 mM) was used to estimate cellular glycolytic dependency and antimycin A (2 μg/m) and rotenone (2 μM) were used to inhibit the flux of electrons through complex III and I, to detect residual non-mitochondrial activity. For the measurement of glycolytic parameters, the changes in proton production rate (PPR) were monitored in response to the sequential administration of D-glucose (10 mM), oligomycin (1.5 μM) and 2-deoxyglucose (100 mM), to assess glycolysis, maximal glycolytic capacity, glycolytic reserve capacity, and non-glycolytic acidification rate, respectively. GAPDH activity was determined by a kinetic assay (ScienCell, Carlsbad, Calif.).

Take `NOCC(=O)O` [AOAA, aminooxyacetic acid]: the NCM356 growth entry in the test with NCM356 cells is “did not affect”. Besides, in the test on HCT116 cells [1] (6 hours), the HCT116 cell migration entry is reported as “markedly reduced”. In the test on HCT116 cells [1] (matrigel, 24 hours), the HCT116 cell invasion entry is given as “markedly reduced”. In addition, the “HCT116-induced endothelial cell migration” value in test [2] is listed as “reduced”. For the same molecule, in the test with HCT116 cells [3], the “basal OCR, calculated ATP production, maximal respiration and Spare Respiratory Capacity” value is listed as “significantly decreased”; the “maximal glycolytic capacity and glycolytic reserve capacity” value is reported as “significantly diminished”.
